# In PubChem BioAssay (NCI):
#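 Five compound concentrations were applied to cells in 96-well plates for 48 hours; endpoints were derived by simple linear interpolation of the resulting dose-response curve. TGI: concentration producing complete growth inhibition.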
# Key:
# Test in all cases: inhibition of tumour cell growth, NCI panel, 48 h
# SF-268 CNS = tested on: SF-268 CNS
# SNB-19 CNS = tested on: SNB-19 CNS
# SK-OV-3 ovarian = tested on: SK-OV-3 ovarian
# RXF 393 renal = tested on: RXF 393 renal
# UACC-257 melanoma = tested on: UACC-257 melanoma
# SW-620 colon = tested on: SW-620 colon
# CCRF-CEM leukemia = tested on: CCRF-CEM leukemia
# SNB-75 CNS = tested on: SNB-75 CNS
# OVCAR-4 ovarian = tested on: OVCAR-4 ovarian
# NCI-H460 lung = tested on: NCI-H460 lung
Compound,TGI (SF-268 CNS) [µM],TGI (SNB-19 CNS) [µM],TGI (SK-OV-3 ovarian) [µM],TGI (RXF 393 renal) [µM],TGI (UACC-257 melanoma) [µM],TGI (SW-620 colon) [µM],TGI (CCRF-CEM leukemia) [µM],TGI (SNB-75 CNS) [µM],TGI (OVCAR-4 ovarian) [µM],TGI (NCI-H460 lung) [µM]
NC1=CN2c3ccccc3N(CC(=O)O)C2C=C1 (stereo not given),> 100,> 100,> 100,> 100,> 100,> 100,> 100,> 100,> 100,> 100
CCCCCCCCCCCCOCCCOP(=O)([O-])OCC[N+](C)(C)C,86,46.9,> 100,> 53.3,98.9,> 100,70.2,71.1,> 100,> 70
CC(C)=CCC/C(C)=C/CC/C(C)=C/CC/C(=C/CC/C(C)=C\CC/C(C)=C/CC/C(C)=C/CC/C(C)=C/Cc1cc(O)ccc1O)CO,9.17,> 100,40.7,2,11.8,42.5,> 30.7,12.7,19.7,33
Oc1ccc(Cl)cc1CN1CCN(Cc2cc(Cl)ccc2O)C1,12.8,12.2,13.3,4.14,5.48,10.5,> 100,7.59,17,4.96
COc1ccc2cc(CN3CCC(C4CCNCC4)CC3)ccc2c1,> 22.3,18.3,23.4,5.19,3.47,3.42,12.7,5.95,31.3,4.4
Cc1cc(S(=O)(=O)Nc2nc(N)nc(N(C)C)n2)c(SCC(=O)O)cc1Cl,> 10,> 10,> 10,> 10,> 10,> 10,> 10,> 10,> 10,> 10
CCOC(=O)CC(=O)Nc1cccc2[nH]cnc12,> 100,> 100,> 100,> 100,> 100,> 100,> 100,98.1,> 100,> 100
COc1ccc(N2C=Nn3c(nc4sc5c(c4c3=O)CCCC5)C2)cc1,> 100,> 100,> 100,57.1,> 100,> 100,> 100,> 100,> 100,> 100
O=C(CNc1ccccc1[N+](=O)[O-])Nn1c(-c2ccccc2)nc2ccccc2c1=O,> 100,47.8,> 100,38.9,> 10,42.2,43.6,41.8,32.1,45.1
Cc1ccc(NC(=O)CSc2nc(=O)[nH]c3nc[nH]c23)cc1,> 100,> 100,> 100,> 100,> 100,> 100,> 100,> 100,> 100,> 100
O=CC12C3CCC1C2C(=O)C3 (stereo not given),> 100,> 100,> 100,> 100,> 100,> 100,> 100,> 100,> 100,> 100
CN(C)C(=O)OC(Cn1cncn1)(Cn1cncn1)c1ccc(Cl)cc1Cl,> 100,> 100,> 100,> 100,> 100,> 100,> 100,> 100,> 100,> 100
CC(=O)OCC1OC(Oc2cc(C)c(O)cc2C/C=C(\C)CC/C=C(\C)CC(=O)CC(C)C)C(O)C(OC(C)=O)C1OC(C)=O (stereo not given),> 50,> 50,> 50,22.6,31.7,24.6,22.3,> 50,> 50,40
COc1ccc(OC)c(NS(=O)(=O)c2ccc3nc(C)n(NS(=O)(=O)c4cc(OC)ccc4OC)c(=O)c3c2)c1,> 100,> 100,> 100,> 100,> 100,> 100,> 100,> 100,> 100,> 100
CC(=O)OC1COC(Nc2nc(NCc3ccccc3)n(C)c(=O)c2N=O)C(OC(C)=O)C1OC(C)=O (stereo not given),> 10,> 10,> 10,> 10,> 10,> 10,> 10,> 10,> 10,> 10
CN(/N=C/c1ccnc2ccccc12)c1ccc(Cl)cc1[N+](=O)[O-],> 100,> 100,> 100,> 100,> 100,> 100,> 100,> 100,69.1,> 100
CC(=O)OC[C@@H](OC(C)=O)[C@H](OC(C)=O)[C@@H]1OC(C)(C)O[C@@H]1C1SCCCS1,> 100,> 100,> 100,> 100,> 100,> 100,> 100,> 100,> 100,> 100
Clc1ccc(C(SCc2ccccc2)SCc2ccccc2)cc1,> 10,> 10,> 10,> 10,> 10,> 10,> 10,> 10,> 10,> 10
